In paper PMC10509167, “Identification and characterization of endo-α-, exo-α-, and exo-β-D-arabinofuranosidases degrading lipoarabinomannan and arabinogalactan of mycobacteria” (Nature Communications, 2023):

Target: T1, EndoMA1 (MIAR_33230) (Microbacterium arabinogalactanolyticum, UniProt A0AAJ6N6D4)
T1 construct: 53,678 Da monomer, dimer; catalytic domain plus putative CBM
Experiment: X-ray crystallography ([…] Å)
Format: binding
Conditions: co-crystallized with A9LT; second site, putative CBM domain; possible crystal packing artifact

T1 sequence (A0AAJ6N6D4 entry or part of it): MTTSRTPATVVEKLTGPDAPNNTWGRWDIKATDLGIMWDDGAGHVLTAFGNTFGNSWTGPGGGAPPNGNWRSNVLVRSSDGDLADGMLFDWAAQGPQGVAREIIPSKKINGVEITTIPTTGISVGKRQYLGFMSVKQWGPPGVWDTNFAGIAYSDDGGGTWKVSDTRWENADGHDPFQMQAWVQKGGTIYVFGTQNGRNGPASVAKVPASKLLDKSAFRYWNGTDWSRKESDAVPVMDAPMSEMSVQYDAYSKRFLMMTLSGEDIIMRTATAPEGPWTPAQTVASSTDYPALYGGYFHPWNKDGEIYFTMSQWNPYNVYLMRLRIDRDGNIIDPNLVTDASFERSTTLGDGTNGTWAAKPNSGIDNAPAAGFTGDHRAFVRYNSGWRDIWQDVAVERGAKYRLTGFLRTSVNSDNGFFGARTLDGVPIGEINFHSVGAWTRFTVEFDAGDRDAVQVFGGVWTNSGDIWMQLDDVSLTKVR

With OC[C@H]1O[C@H](OC[C@H]2O[C@H](OC[C@H]3O[C@H](OC[C@H]4OC(O)[C@@H](O)[C@@H]4O)[C@@H](O)[C@@H]3O)[C@@H](O)[C@@H]2O)[C@@H](O)[C@@H]1O (stereo partly shown) [A4L] the “X-ray crystallography (1.80 Å)” value was “The A4L molecule is bound to the shallow surface of the putative CBM domain”.
